Series [1] relates to solid tumor from the cancer stem cell population (ZsGreen+). As to the kind of experiment: Mouse subcutaneous solid tumor model test. The format is in vivo, BALB/cA nude mice. As to the method: In 100 ml of distilled water, 0.37 g of NaHCO3, 90 μl of NaH2PO4.2H2O (1M) and 180 μl of CaCl2 (1 M) were added in this order and dissolved, and the pH was adjusted to 7.5 with 1N HCl. This was filtered through 0.2 μm diameter filter. Per 1 ml of the resultant buffer, 2 μg of miRNA and 4 μl of CaCl2 (1 M) were mixed and incubated in a water bath at 37° C. for 30 minutes. Then, spin down was performed at 15000 rpm×5 minutes. The resultant pellet was dispersed in physiological saline (containing 0.5 wt % albumin). Accordingly, a dispersion of composite particles containing the miRNA in carbonate apatite particles was obtained. The resultant dispersion was subjected to ultrasonic vibration treatment for 10 minutes just prior to testing. Note that the ultrasonic vibration treatment was performed for 10 minutes using a water bath with an ultrasonic vibration function, in which the dispersion contained in a plastic container was floated on water set to 20° C., under conditions of high frequency output of 55 W and oscillation frequency of 38 kHz. The preparation obtained in this way was immediately used for the tests described below.
Note that it is confirmed in the measurement using a scanning probe microscope that the dispersion of ultrasonic vibration treatment includes composite particles composed of carbonate apatite nanoparticles containing the miRNA having an average particle diameter of 50 nm or less. It is also confirmed that the resultant composite particles contain about 20 μg of the miRNA per 1 mg of carbonate apatite.
The cancer stem cell population (ZsGreen+) obtained in Test Example 1 was subcutaneously injected at 5×10^5 cells to the left and right backs of 6 to 8 weeks age BALB/cA nude mice (manufactured by CLEA Japan, Inc.) to produce solid tumor model mice. When the tumor reached about 20 mm^3 in size, the mice were randomly divided into an hsa-miR-136-5p administration group (hsa-miR-136-5p), an untreated group, and a negative control group (control miRNA). In the hsa-miR-136-5p administration group, the day at which the tumor reached about 20 mm^3 in size was 0th day. On the 0th, 3rd, 5th, 7th, 10th, 12th, 14th, 17th and 19th days, carbonate apatite nanoparticles containing the hsa-miR-136-5p were intravenously injected into the tail vein at 40 μg/dose in terms of the amount of hsa-miR-136-5p. In the negative control group, carbonate apatite nanoparticles containing a control miRNA (SEQ ID NO: 9) were intravenously injected into the tail vein at the same schedule and dose as those for the miRNA136-5p administration group. In the untreated group, no drug was administered. During the test period, the tumor volume on the back of the mouse (longer diameter×shorter diameter×shorter diameter×1/2) was measured over time, and on the 24th day, the tumor was excised from the mice and observed for size, and its weight was measured.
A mouse subcutaneous solid tumor model test was conducted in the same manner as in Test Example 2 except that hsa-miR-3065-3p was used in place of hsa-miR-136-5p.
A mouse subcutaneous solid tumor model test was conducted in the same manner as in Test Example 2 except that hsa-miR-181-5p was used in place of hsa-miR-136-5p.

The subject of series [2] is human gastric cancer cells (AGS line). As to the kind of experiment: Antitumor effect on human gastric cancer cells, cell count after transfection. The format is cell-based. As to conditions: 10 pmol/well, 48 hours, FIG. 10; for antitumor effect: positive control hsa-miR-34a. As to the method:
A cell suspension prepared by suspending human pancreatic cancer cells (Bxpc3 line) in D-MEM medium (containing 10% by volume FBS) was seeded in each well of a 24-well plate at 3×10^3 cells/well, followed by culture at 37° C. overnight. Thereafter, according to the lipofectamin 2000 protocol, each miRNA was transfected at 10 pmol/well, and 48 hours later, the cells were counted. In addition, tests were also conducted under the same condition on a case where the miRNA was not introduced (untreated group), a case where hsa-miR-34a (SEQ ID NO: 8) was used (positive control) in place of the miRNA, and a case where a control miRNA (SEQ ID NO: 9) was used (control miRNA, negative control) in place of the selected miRNA.
As to hsa-miR-136-5p, hsa-miR-3065-3p and hsa-miR-181a-5p, evaluation was performed of the antitumor effect on human gastric cancer cells. The specific test method is the same as that for Test Example 4 except that human gastric cancer cells (AGS line) were used as cancer cells.

Series [3] deals with human large bowel cancer cells (HT29 line, HCT116 line and DLD1 line). As to the kind of experiment: Proliferation assay (absorbance at 450 nm over time). It is filed as cell-based. As to conditions: HT29, HCT116 and DLD1 lines; 50 nM; culture for 96 hours; versus control miRNA; FIG. 13. As to the method:
A cell suspension prepared by suspending human large bowel cancer cells (HT29 line, HCT116 line and DLD1 line) in DMEM medium (containing 10% by volume FBS) was seeded in each well of a 96-well plate at 3×10^3 cells/well, followed by culture at 37° C. overnight. Then, a mixture of lipofectamin RNAiMAX, Reagent (final concentration in each well: 0.03 μL/ml) and hsa-miR-3065-3p (final concentration in each well: 50 nM) was added for transfection. Subsequently, culture was carried out for 96 hours, and the absorbance at 450 nm was measured over time. In addition, tests were also performed wider the same condition on a case where a control miRNA (SEQ ID NO: 9) was used (control miRNA, negative control) in place of hsa-miR-3065-3p.
In FIG. 13, the time-course of relative values of the absorbance is shown, in which the relative values were determined when the absorbance after culture for 24 hours from transfection of hsa-miR-3065-3p was 1. […] This is because, as described above, among human large bowel cancer cells (HT29 line, HCT116 line and DLD1 line), cancer stem cells are present, so that hsa-miR-3065-3p is considered to intensively suppress proliferation of the cancer stem cells in particular, leading to the result.

In series [4] the test system is human large bowel cancer cells (DLD1 line). As to the kind of experiment: Infiltration assay (Matrigel Invasion Chambers). The format is cell-based. As to conditions: 20 pmol/cell culture insert, 48 hours, versus control miRNA, FIG. 15. As to the method:
The infiltration assay was performed using BD Matrigel Invasion Chambers, 12 Chambers per 24-Well Plate (BD Biosciences). First, […] of RPMI medium (containing 10% by volume FBS) was added in the wells of a companion plate. Furthermore, in a cell culture insert having a Matrigel basement membrane, a mixture of human large bowel cancer cells (DLD1 line) at 1×10^6 cells/well, lipofectamin RNAiMAX Regent (final concentration in the cell culture insert: 2 μL/ml) and hsa-miR-3065-3p (final concentration in the cell culture insert: 20 pmol/cell culture insert) was added, followed by culture for 48 hours. Thereafter, the cell culture insert was removed, and cells adhering to the outside of the Matrigel basement membrane were fixed with formalin and then stained with hematoxylin to count the cells migrated to the outside of the Matrigel basement membrane. In addition, tests were also performed under the same condition on a case where a control miRNA (SEQ ID NO: 9) was used (control miRNA, negative control) in place of hsa-miR-3065-3p.

This note sets out measurements from patent US11439657B2, “Cancer stem cell growth inhibitor using miRNA” (CancerStem Tech Inc., priority 2017, dated 2022).

Entries after “also recorded” stand apart in the source; their conditions may differ.

In the case of “hsa-miR-136-5p: human-derived miR-136-5p; base sequence set forth in SEQ ID NO: 1 as mature miRNA (ACUCCAUUUGUUUUGAUGAUGGA; listed as RNA, chemistry not given here; listed as Homo sapiens)”, in series [1] (24th day, carbonate apatite nanoparticles, 40 μg/dose i.v., FIGS. 5b and 5c), the “tumor excised on the 24th day (size and weight) as compared to the untreated group and the negative control group” value is given as “significantly smaller”. Also, the “tumor volume as compared to the untreated group and the negative control group” value in series [1] (after the 7th day, carbonate apatite nanoparticles, 40 μg/dose i.v., FIG. 5a) is “significantly smaller tumor volume”. Further, the “antitumor effect as compared to the untreated group and the negative control group (control miRNA)” value in series [1] (carbonate apatite nanoparticles containing the miRNA, 40 μg/dose, tail vein i.v., days 0-19, tumor excised on the 24th day) was “remarkably higher antitumor effect”. In series [2], the “proliferation inhibitory effect on gastric cancer cells” value is given as “strong proliferation inhibitory effect” and the antitumor effect entry is “much better antitumor effect than that of hsa-miR-34a; also recorded: particularly remarkable antitumor effect”.
As to “hsa-miR-3065-3p: human-derived miR-3065-3p; base sequence set forth in SEQ ID NO: 2 as mature miRNA (UCAGCACCAGGAUAUUGUUGGAG; listed as RNA, chemistry not given here; listed as Homo sapiens)”, the “tumor volume as compared to the untreated group and the negative control group” value in series [1] (from the 17th day, carbonate apatite nanoparticles, 40 μg/dose i.v., FIG. 6) is recorded as “significantly reduced”. Moreover, in series [3], the “proliferation inhibitory effect on human large bowel cancer cells” value is given as “high proliferation inhibitory effect”. In series [2], the “proliferation inhibitory effect on gastric cancer cells” value is “strong proliferation inhibitory effect” and the antitumor effect result is recorded as “much better antitumor effect than that of hsa-miR-34a”. The “migration ability of human large bowel cancer cells (cells migrated to the outside of the Matrigel basement membrane)” value in series [4] is reported as “able to inhibit the migration ability”.
